Measurements reported in US9840501B2, “Morpholin-pyridine derivatives” (Hoffmann-La Roche Inc., priority 2014, dated 2017).

Assays:
rat TAAR1 = rat TAAR1 (Rattus norvegicus (Rat), UniProt Q923Y9); experiment: Radioligand binding assay on rat TAAR1; conditions: rat TAAR1, membranes of stably transfected HEK-293 cells; second value of the pair; read-out: Ki (μM) mouse/rat: rat
How it was run: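 Membranes from HEK293 cells stably expressing rat TAAR1, in 20 mM HEPES-NaOH pH 7.4; displacement of 3[H]-(S)-4-[(ethyl-phenyl-amino)-methyl]-4,5-dihydro-oxazol-2-ylamine, nonspecific binding with 10 μM unlabeled ligand. Compounds 10 pM to 10 μM in duplicate, 1 h at 4 °C, filtration and scintillation counting.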

mouse TAAR1 = mouse TAAR1 (Mus musculus (Mouse), UniProt Q923Y8); experiment: Radioligand binding assay on mouse TAAR1; conditions: mouse TAAR1, membranes of stably transfected HEK-293 cells; first value of the pair; read-out: Ki (μM) mouse/rat: mouse
How it was run: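 Membranes from HEK293 cells stably expressing mouse TAAR1, in 20 mM HEPES-NaOH pH 7.4 with 0.1 mM EDTA, incubated 1 h at 4 °C with ^3[H]-(S)-4-[(ethyl-phenyl-amino)-methyl]-4,5-dihydro-oxazol-2-ylamine and compounds (10 pM to 10 μM, duplicates). Nonspecific binding with 10 μM unlabeled ligand; bound radioactivity counted after filtration.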

Chain of mouse TAAR1 (Q923Y8 whole entry): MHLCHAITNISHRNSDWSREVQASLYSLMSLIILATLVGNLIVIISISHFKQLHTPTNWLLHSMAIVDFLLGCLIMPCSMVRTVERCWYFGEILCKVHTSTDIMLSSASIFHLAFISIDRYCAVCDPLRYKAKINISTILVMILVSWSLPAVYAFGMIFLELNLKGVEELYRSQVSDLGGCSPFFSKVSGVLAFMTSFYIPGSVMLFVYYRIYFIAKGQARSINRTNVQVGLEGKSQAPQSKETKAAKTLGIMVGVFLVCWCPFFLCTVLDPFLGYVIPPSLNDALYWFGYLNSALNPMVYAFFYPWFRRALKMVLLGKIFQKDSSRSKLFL
Chain of rat TAAR1 (Q923Y9 whole entry): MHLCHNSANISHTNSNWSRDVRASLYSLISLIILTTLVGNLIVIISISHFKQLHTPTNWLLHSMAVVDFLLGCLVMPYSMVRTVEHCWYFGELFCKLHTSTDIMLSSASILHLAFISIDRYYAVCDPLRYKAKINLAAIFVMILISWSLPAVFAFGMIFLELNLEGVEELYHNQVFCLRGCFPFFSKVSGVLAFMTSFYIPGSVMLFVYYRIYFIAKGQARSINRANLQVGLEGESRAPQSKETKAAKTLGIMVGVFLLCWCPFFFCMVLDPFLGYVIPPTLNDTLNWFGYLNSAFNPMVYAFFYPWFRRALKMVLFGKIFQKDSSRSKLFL

Row | Compound | Ki (rat TAAR1) [µM] | Ki (mouse TAAR1) [µM]
1 | CCCc1n[nH]c(C(=O)Nc2ccc([C@@H]3CNCCO3)nc2)c1Cl [Example 39, 4-Chloro-N-[6-[(2S)-morpholin-2-yl]-3-pyridyl]-3-propyl-1H-pyrazole-5-carboxamide] | 0.0146 | 0.007
2 | O=C(Nc1ccc([C@@H]2CNCCO2)nc1)c1ccc(OCC(F)(F)F)nc1 [Example 36, N-[6-[(2S)-Morpholin-2-yl]-3-pyridyl]-6-(2,2,2-trifluoroethoxy)pyridine-3-carboxamide] | 0.0278 | 0.0066
3 | FC(F)(F)c1ccc(Nc2ccc([C@@H]3CNCCO3)nc2)nc1 [Example 29, N-[6-[(2S)-Morpholin-2-yl]-3-pyridyl]-5-(trifluoromethyl)pyridin-2-amine] | 0.0103 | 0.0035
4 | CCCc1n[nH]c(C(=O)Nc2ccc([C@H]3CNCCO3)nc2)c1Cl [Example 59, 4-Chloro-N-[6-[(2R)-morpholin-2-yl]-3-pyridyl]-3-propyl-1H-pyrazole-5-carboxamide] | 0.021 | 0.0063
5 | O=C(Nc1ccc([C@@H]2CNCCO2)nc1)Nc1cccc(C(F)(F)F)c1 [Example 42, 1-[6-[(2S)-Morpholin-2-yl]-3-pyridyl]-3-[3-(trifluoromethyl)phenyl]urea] | 0.003 | 0.0038
6 | Cc1cc(C(=O)Nc2ccc([C@H]3CNCCO3)nc2)nc(C(F)(F)F)n1 [Example 68, (R)-6-Methyl-N-(6-(morpholin-2-yl)pyridin-3-yl)-2-(trifluoromethyl)pyrimidine-4-carboxamide] | 0.0469 | 0.0731
7 | CCCc1n[nH]c(C(=O)Nc2cnc(C3CNCCO3)c(C)c2)c1Cl (racemic) [Example 118, (RS)-4-Chloro-N-(5-methyl-6-morpholin-2-yl-3-pyridyl)-3-propyl-1H-pyrazole-5-carboxamide] | 0.597 | 0.0468
8 | Clc1ccc(Nc2ccc([C@@H]3CNCCO3)nc2)cc1 [Example 18, N-(4-Chlorophenyl)-6-[(2S)-morpholin-2-yl]pyridin-3-amine] | 0.043 | 0.0015
9 | CC(C)Cc1cc(C(=O)Nc2ccc([C@@H]3CNCCO3)nc2)[nH]n1 [Example 88, 3-Isobutyl-N-[6-[(2S)-morpholin-2-yl]-3-pyridyl]-1H-pyrazole-5-carboxamide] | 0.011 | 0.0113
10 | Brc1ccc(Nc2ccc([C@H]3CNCCO3)nc2)nc1 [Example 47, N-(5-Bromo-2-pyridyl)-6-[(2R)-morpholin-2-yl]pyridin-3-amine] | 0.165 | 0.0039
11 | CCCc1c(Cl)c(C(=O)Nc2ccc([C@H]3CNCCO3)nc2)nn1C [Example 48, 4-Chloro-1-methyl-N-[6-[(2R)-morpholin-2-yl]-3-pyridyl]-5-propyl-pyrazole-3-carboxamide] | 1.37 | 0.0199
12 | Cc1cc(NC(=O)Nc2cccc(Cl)c2)cnc1C1CNCCO1 (racemic) [Example 119, (RS)-1-(3-Chlorophenyl)-3-(5-methyl-6-morpholin-2-yl-3-pyridyl)urea] | 0.243 | 0.0533
13 | CCCc1n[nH]c(C(=O)Nc2ccc([C@H]3CNCCO3)nc2)c1F [Example 85, 4-Fluoro-N-[6-[(2R)-morpholin-2-yl]-3-pyridyl]-3-propyl-1H-pyrazole-5-carboxamide] | 0.15 | 0.0046
14 | O=C(Nc1ccc([C@H]2CNCCO2)nc1)Nc1cccc(C(F)(F)F)c1 [Example 62, 1-[6-[(2R)-Morpholin-2-yl]-3-pyridyl]-3-[3-(trifluoromethyl)phenyl]urea] | 0.0077 | 0.0035
15 | CC(C)c1n[nH]c(C(=O)Nc2ccc([C@@H]3CNCCO3)nc2)c1F [Example 121, 4-Fluoro-3-isopropyl-N-[6-[(2S)-morpholin-2-yl]-3-pyridyl]-1H-pyrazole-5-carboxamide] | 0.0954 | 0.0239
16 | FC(F)(F)c1ccc(Nc2ccc([C@H]3CNCCO3)nc2)cn1 [Example 27, 6-[(2R)-Morpholin-2-yl]-N-[6-(trifluoromethyl)-3-pyridyl]pyridin-3-amine] | 1.1 | 0.074
17 | O=C(Nc1ccc(C(F)(F)F)cc1)Nc1ccc(C2CNCCO2)nc1 (racemic) [Example 10, (RS)-1-(6-Morpholin-2-yl-3-pyridyl)-3-[4-(trifluoromethyl)phenyl]urea] | 0.0029 | 0.0042

Row | Compound | Ki (rat TAAR1) [µM] | Ki (mouse TAAR1) [µM]
18 | CCc1n[nH]c(C(=O)Nc2ccc([C@H]3CNCCO3)nc2)c1Br [Example 84, 4-Bromo-3-ethyl-N-[6-[(2R)-morpholin-2-yl]-3-pyridyl]-1H-pyrazole-5-carboxamide] | 0.0685 | 0.0063
19 | Clc1ccc(Nc2ccc([C@@H]3CNCCO3)nc2)nc1 [Example 20, N-(5-Chloro-2-pyridyl)-6-[(2S)-morpholin-2-yl]pyridin-3-amine] | 0.0751 | 0.0019
20 | O=C(Nc1ccc([C@H]2CNCCO2)nc1)c1[nH]nc(C2CC2)c1F [Example 86, 3-Cyclopropyl-4-fluoro-N-[6-[(2R)-morpholin-2-yl]-3-pyridyl]-1H-pyrazole-5-carboxamide] | 0.156 | 0.0074
21 | O=C(Nc1ccc([C@@H]2CNCCO2)nc1)c1ccc(Cl)cc1 [Example 31, 4-Chloro-N-[6-[(2S)-morpholin-2-yl]-3-pyridyl]benzamide] | 0.102 | 0.003
22 | Cc1cc(Nc2ccc(C(F)(F)F)cn2)cnc1C1CNCCO1 (racemic) [Example 104, (RS)-5-Methyl-6-morpholin-2-yl-N-[5-(trifluoromethyl)-2-pyridyl]pyridin-3-amine] | 0.455 | 0.0837
23 | Cc1cc(NC(=O)c2ccnc(C(F)(F)F)c2)cnc1C1CNCCO1 (racemic) [Example 117, (RS)—N-(5-Methyl-6-morpholin-2-yl-3-pyridyl)-2-(trifluoromethyl)pyridine-4-carboxamide] | 1.41 | 0.464
24 | Cc1n[nH]c(C(=O)Nc2ccc([C@@H]3CNCCO3)nc2)c1Cl [Example 44, 4-Chloro-3-methyl-N-[6-[(2S)-morpholin-2-yl]-3-pyridyl]-1H-pyrazole-5-carboxamide] | 0.443 | 0.0239
25 | O=C(Nc1ccc([C@@H]2CNCCO2)nc1)c1[nH]nc(C2CC2)c1F [Example 80, 3-Cyclopropyl-4-fluoro-N-[6-[(2S)-morpholin-2-yl]-3-pyridyl]-1H-pyrazole-5-carboxamide] | 0.0856 | 0.0065
26 | O=C(Nc1ccc([C@@H]2CNCCO2)nc1)c1ccc(C(F)(F)F)cc1 [Example 33, N-[6-[(2S)-Morpholin-2-yl]-3-pyridyl]-4-(trifluoromethyl)benzamide] | 0.052 | 0.0056
27 | FC(F)(F)c1ccc(Nc2ccc([C@H]3CNCCO3)nc2)nc1 [Example 49, N-[6-[(2R)-Morpholin-2-yl]-3-pyridyl]-5-(trifluoromethyl)pyridin-2-amine] | 0.066 | 0.0052
28 | O=C(Nc1ccc([C@H]2CNCCO2)nc1)c1cccc(C(F)(F)F)c1 [Example 55, N-[6-[(2R)-Morpholin-2-yl]-3-pyridyl]-3-(trifluoromethyl)benzamide] | 0.0221 | 0.0064
29 | O=C(Nc1ccc(Cl)cc1)Nc1ccc(C2CNCCO2)nc1 (racemic) [Example 11, (RS)-1-(4-Chlorophenyl)-3-(6-morpholin-2-yl-3-pyridyl)urea] | 0.0047 | 0.0038
30 | CC(C)c1n[nH]c(C(=O)Nc2ccc([C@H]3CNCCO3)nc2)c1Cl [Example 115, 4-Chloro-3-isopropyl-N-[6-[(2R)-morpholin-2-yl]-3-pyridyl]-1H-pyrazole-5-carboxamide] | 0.009 | 0.0087
31 | O=C(Nc1ccc([C@H]2CNCCO2)nc1)c1[nH]nc(C2CC2)c1Br [Example 87, 4-Bromo-3-cyclopropyl-N-[6-[(2R)-morpholin-2-yl]-3-pyridyl]-1H-pyrazole-5-carboxamide] | 0.0291 | 0.0053
32 | CC(C)n1nc(OCC(F)(F)F)cc1C(=O)Nc1ccc([C@@H]2CNCCO2)nc1 [Example 93, 2-Isopropyl-N-[6-[(2S)-morpholin-2-yl]-3-pyridyl]-5-(2,2,2-trifluoroethoxy)pyrazole-3-carboxamide] | 0.0023 | 0.0215
33 | CCCc1n[nH]c(C(=O)Nc2cnc(C3CNCCO3)c(F)c2)c1Cl (racemic) [Example 114, (RS)-4-Chloro-N-(5-fluoro-6-morpholin-2-yl-3-pyridyl)-3-propyl-1H-pyrazole-5-carboxamide] | 0.0221 | 0.0048
